Data taken from patent US11065259B2, “Methods of treating pruritus” (Duke University, priority 2014, dated 2021).

System: pruritus (itch)
Assay: Topical administration to human subjects with psoriasis-associated pruritus
Format: in vivo
Conditions: person
Procedure: The efficacy of Manganese ortho tetrakis(N-n-butoxyethylpyridinium-2-yl)porphyrin (MnTnBuOE-2-PyP^5+) in treating pruritus (itch) when topically applied was evaluated in a person with large areas of moderately severe plaque-forming psoriasis on upper and lower portions of both legs, with each involved area being approximately 10-20 cm in diameter. These lesions were markedly excoriated with intense, persistent symptoms of pruritus. MnTnBuOE-2-PyP^5+ was formulated in Lipoderm at 0.01% and 0.1% concentrations producing a light brown cream which was applied b.i.d. to lesions on one extremity. Symptoms of pruritus were relieved within 10 to 15 minutes after topical application of MnTnBuOE-2-PyP^5+ and remained under control for several hours.
A second subject with psoriatic involvement of the scalp of moderate severity and associated with marked pruritus and scratching was topically treated with MnTnBuOE-2-PyP^5+ 0.1% in Lipoderm twice daily for 3 weeks.

[1] = plaque-forming psoriasis on both legs, 0.01% and 0.1% in Lipoderm, topical b.i.d.
[2] = psoriatic involvement of the scalp, 0.1% in Lipoderm, topical twice daily for 3 weeks

Manganese ortho tetrakis(N-n-butoxyethylpyridinium-2-yl)porphyrin [MnTnBuOE-2-PyP^5+]
time after topical application until symptoms of pruritus were relieved [1]: 10 to 15 min | time symptoms of pruritus remained under control [1]: several hours | comparison of efficacy of 0.01% and 0.1% concentrations (plaque-forming psoriasis on both legs, lesions treated with 0.01% vs 0.1% in Lipoderm): Equivalent efficacy | effect of repeat application on pruritus (plaque-forming psoriasis on both legs, repeat topical application in Lipoderm): consistently reduced pruritus without tachyphylaxis | resolution of pruritic symptoms [2]: completely effective in resolving pruritic symptoms | time after application until symptoms of pruritus were relieved [2]: within minutes | time symptoms of pruritus remained under control [2]: up to 12 hours
